The source of these data is patent US20230303572A1, “18-MC SALT FORMS” (Mind Medicine, Inc., priority 2022, published 2023).

Data set [1] can be described thus: Heating experiments and VT-XRPD (N2 drying, heating, cooling back): form change. Type of data set: physicochemical. As to conditions: for form conversion, summary statement: after desolvation; for Form after heating: solid form by XRPD after heating, cells marked *, # have footnotes that are not shown; for form change after N2 drying (VT-XRPD): N2-drying for 20 min at 30° C. The source says: (§1) For XRPD analysis, a PANalytical Empyrean and X′ Pert3 X-ray powder diffract meter was used.

Data set [2] in a line: Relative thermodynamic stability of HCl salt forms (desolvation and form conversion data). It is filed as physicochemical. How it is done: Starting from HCl salt materials with different forms, a total of 100 polymorph screening experiments was performed using different crystallization methods including salt formation by liquid vapor diffusion/slurry at elevated temperature, evaporation at RT/high temperatures, slurry and reverse anti-solvent addition at different temperatures, slow/crash cooling, polymer induced crystallization and grinding. All the resulting solids were isolated for XRPD test, and new forms were further characterized by TGA, DSC, ^1H NMR and HPLC/ IC.
An additional polymorph screening was performed for 18-MC HCl salt.

Data set [3] is described as follows: Physical form stability on storage at RT, air drying or exposure to ambient conditions (XRPD). Type of data set: physicochemical.
Description: as §1

Data set [4] has as its system substance use models (nicotine, alcohol, morphine, cocaine and methamphetamine). The settings on record: animal studies; dosages as low as 10 mg/kg i.p.; cited from earlier work.
The test system of data set [5] is cocaine-seeking or "craving" behaviors. The settings on record: animal model; cited from earlier work.
[6] abbreviates: solvates of HCl salt, form after desolvation.

SMILES strings stand for the structures. Where a name gives a salt, the structure may show the parent alone.

For `COCC[C@H]1CC2CN3CCc4c([nH]c5ccccc45)[C@](C(=O)OC)(C2)[C@H]13` [HCl salt Type U, 18-methoxycoronaridine], the “form conversion, summary statement” value in data set [1] is “converted to HCl salt Type A”. Besides, the “form change after heating (XRPD/VT-XRPD)” value in data set [1] (heating to 120° C.) was “an extra peak representative of HCl salt Type A was observed”. Further, the “form change after heating (XRPD)” value in data set [1] (heating to 150° C.) is “most diffraction peaks were consistent with HCl salt Type A”. For the same molecule, in data set [2] (setting [6]), the Form after desolvation result is “HCl salt Type A”.

In the case of `COCC[C@H]1CC2CN3CCc4c([nH]c5ccccc45)[C@](C(=O)OC)(C2)[C@H]13` [HCl salt Type B, 18-methoxycoronaridine], the Form after heating result in data set [1] is reported as “HCl salt Type A”. The Form after desolvation result in data set [2] (setting [6]) was “HCl salt Type A”.

As for `COCC[C@H]1CC2CN3CCc4c([nH]c5ccccc45)[C@](C(=O)OC)(C2)[C@H]13` [HCl salt Type R, 18-methoxycoronaridine], in data set [1], the “form conversion, summary statement” value is “converted to HCl salt Type A”. The “form change after heating (XRPD)” value in data set [1] (heating to 170° C. and cooling back to ambient condition) is “converted to HCl salt Type A”. Besides, in data set [2] (setting [6]), the Form after desolvation entry is given as “HCl salt Type A”.

Regarding `COCC[C@H]1CC2CN3CCc4c([nH]c5ccccc45)[C@](C(=O)OC)(C2)[C@H]13` [HCl salt Type C, 18-methoxycoronaridine], the Form after heating entry in data set [1] is “HCl salt Type A”. Also, in data set [2] (setting [6]), the Form after desolvation entry is recorded as “HCl salt Type A”.

Take `COCC[C@H]1CC2CN3CCc4c([nH]c5ccccc45)[C@](C(=O)OC)(C2)[C@H]13` [HCl salt Type S, 18-methoxycoronaridine]: the “change after air drying” value in data set [3] (air drying at RT, time not stated) is recorded as “turned to be gel like”. Besides, the “form conversion, summary statement” value in data set [1] was “converted to HCl salt Type A”. The “form change after heating (XRPD)” value in data set [1] (heating to 150° C.) is recorded as “most diffraction peaks were consistent with HCl salt Type A”. In data set [2] (setting [6]), the Form after desolvation entry is listed as “HCl salt Type A”.

For `COCC[C@H]1CC2CN3CCc4c([nH]c5ccccc45)[C@](C(=O)OC)(C2)[C@H]13` [HCl salt Type T, 18-methoxycoronaridine], in data set [1], the “form conversion, summary statement” value is recorded as “converted to HCl salt Type A”. Further, the “form change after heating (XRPD)” value in data set [1] (heating to 150° C.) is recorded as “most diffraction peaks were consistent with HCl salt Type A”. Moreover, the Form after desolvation result in data set [2] (setting [6]) is given as “HCl salt Type A”.

Regarding `COCC[C@H]1CC2CN3CCc4c([nH]c5ccccc45)[C@](C(=O)OC)(C2)[C@H]13` [18-MC, 18-methoxycoronaridine], the “effect on drug self-administration” value in data set [4] is on record as “significantly reduces drug self-administration”. For the same molecule, in data set [5], the “effect on cue-induced cocaine-seeking” value was “attenuate effects of the environmental cues”.

Consider `COCC[C@H]1CC2CN3CCc4c([nH]c5ccccc45)[C@](C(=O)OC)(C2)[C@H]13` [HCl salt Type Q, 18-methoxycoronaridine], for which, in data set [1], the “form change after N2 drying (VT-XRPD)” value was “no form change” and the “form conversion, summary statement” value is “converted to HCl salt Type A”. The “form change after heating (VT-XRPD)” value in data set [1] (heating to 100° C., 130° C., 160° C. and cooling back to 30° C. under N2 protection) was “form change to a mixture of HCl salt Type A and freebase Type A”. Moreover, the Form after desolvation entry in data set [2] (setting [6]) is recorded as “HCl salt Type A+freebase Type A”.

Consider `COCC[C@H]1CC2CN3CCc4c([nH]c5ccccc45)[C@](C(=O)OC)(C2)[C@H]13` [HCl salt Type M, 18-methoxycoronaridine], for which, in data set [3] (storage at RT for ~3 days), the “form change after storage (XRPD)” value is reported as “extra peaks of HCl salt Type A”. For the same molecule, in data set [1], the “form change after N2 drying (VT-XRPD)” value was “no form change” and the “form conversion, summary statement” value is “converted to HCl salt Type A”. Further, in data set [1] (heating to 100° C.), the “form change after heating (XRPD/VT-XRPD)” value is “peaks of HCl salt Type A were observed”. The “form change after heating (VT-XRPD)” value in data set [1] (heating to 180° C. under N2 protection) is given as “most diffraction peaks were consistent with HCl salt Type A with extra peak similar to HCl salt Type K”. Also, the Form after desolvation entry in data set [2] (RT storage or heat to 100° C. under N2) is given as “HCl salt Type A**”.
